Measured values from patent US20260027116A1, “Methods of Treating Chronic Graft-Versus-Host Disease Following Allogeneic Hematopoietic Stem Cell Transplantation” (Kadmon Corporation, LLC, priority 2022, published 2026).

System: patients with cGVHD
Protocol: All responses were assessed by the investigators.
Reported Adverse Events. […] All-cause mortality data collected during the study were assessed for all enrolled participants. Disease progression related death was not reported as AE.
Number of Participants With Treatment-emergent Adverse Events (TEAEs), and Treatment-emergent Serious Adverse Events (TESAEs). […] TEAEs included both SAEs and non-SAEs. […] Analysis was performed on safety population which included all participants who received at least 1 dose of study medication.

CC(C)NC(=O)COc1cccc(-c2nc(Nc3ccc4[nH]ncc4c3)c3ccccc3n2)c1 [Belumosudil, 2-{3-[4-(1H-indazol-5-ylamino)-2-quinazolinyl]phenoxy}-N-(propan-2-yl) acetamide]
4 (19): All grade Hypertension, No. (%) (Cohort 3 400 mg QD)
(14.29%): All-Cause Mortality, % (Cohort 3 400 mg QD)
0/21 (0%): Abdominal pain upper: Affected/At Risk (%) (Cohort 3 400 mg QD) | Acute respiratory distress syndrome: Affected/At Risk (%) (Cohort 3 400 mg QD) | Adrenal insufficiency: Affected/At Risk (%) (Cohort 3 400 mg QD) | Anaemia: Affected/At Risk (%) (Cohort 3 400 mg QD) | Anal incontinence: Affected/At Risk (%) (Cohort 3 400 mg QD) | Asthenia: Affected/At Risk (%) (Cohort 3 400 mg QD) | Atelectasis: Affected/At Risk (%) (Cohort 3 400 mg QD) | Balance disorder: Affected/At Risk (%) (Cohort 3 400 mg QD) | Basal cell carcinoma: Affected/At Risk (%) (Cohort 3 400 mg QD) | Benign prostatic hyperplasia: Affected/At Risk (%) (Cohort 3 400 mg QD) | Blood alkaline phosphatase increased: Affected/At Risk (%) (Cohort 3 400 mg QD) | Blood chloride decreased: Affected/At Risk (%) (Cohort 3 400 mg QD) | Blood creatine increased: Affected/At Risk (%) (Cohort 3 400 mg QD) | Blood creatine phosphokinase increased: Affected/At Risk (%) (Cohort 3 400 mg QD) | Blood loss anaemia: Affected/At Risk (%) (Cohort 3 400 mg QD) | Bronchial secretion retention: Affected/At Risk (%) (Cohort 3 400 mg QD) | Bronchoscopy: Affected/At Risk (%) (Cohort 3 400 mg QD) | Catheter site haemorrhage: Affected/At Risk (%) (Cohort 3 400 mg QD) | Chills: Affected/At Risk (%) (Cohort 3 400 mg QD) | Chronic kidney disease: Affected/At Risk (%) (Cohort 3 400 mg QD) | Contrast media allergy: Affected/At Risk (%) (Cohort 3 400 mg QD) | Corneal abrasion: Affected/At Risk (%) (Cohort 3 400 mg QD) | Corneal infection: Affected/At Risk (%) (Cohort 3 400 mg QD) | Drug eruption: Affected/At Risk (%) (Cohort 3 400 mg QD) | Dyspnoea exertional: Affected/At Risk (%) (Cohort 3 400 mg QD) | Enamel anomaly: Affected/At Risk (%) (Cohort 3 400 mg QD) | Epidural lipomatosis: Affected/At Risk (%) (Cohort 3 400 mg QD) | Epstein-Barr virus infection: Affected/At Risk (%) (Cohort 3 400 mg QD) | Erectile dysfunction: Affected/At Risk (%) (Cohort 3 400 mg QD) | Eye irritation: Affected/At Risk (%) (Cohort 3 400 mg QD) | Eye pain: Affected/At Risk (%) (Cohort 3 400 mg QD) | Eye pruritus: Affected/At Risk (%) (Cohort 3 400 mg QD) | Flushing: Affected/At Risk (%) (Cohort 3 400 mg QD)
5/21 (23.81%): Arthralgia: Affected/At Risk (%) (Cohort 3 400 mg QD)
3/16 (18.75%): Vomiting: Affected/At Risk (%) (Cohort 2 200 mg BID)
9: Cough: # Events (Cohort 3 400 mg QD)
10/21 (47.62%): Fatigue: Affected/At Risk (%) (Cohort 3 400 mg QD)
11: Diarrhoea: # Events (Cohort 3 400 mg QD)
7 (33): All grade Cough, No. (%) (Cohort 3 400 mg QD) | All grade Diarrhea, No. (%) (Cohort 3 400 mg QD) | All grade Dyspnea, No. (%) (Cohort 3 400 mg QD) | All grade URI, No. (%) (Cohort 3 400 mg QD)
7/21 (33.33%): Cough: Affected/At Risk (%) (Cohort 3 400 mg QD) | Diarrhoea: Affected/At Risk (%) (Cohort 3 400 mg QD)
14 (67): Drug-related AE, No. (%) (Cohort 3 400 mg QD)
0: Vertigo: # Events (Cohort 2 200 mg BID) | Weight decreased: # Events (Cohort 2 200 mg BID) | White blood cell count decreased: # Events (Cohort 2 200 mg BID) | Abdominal pain upper: # Events (Cohort 3 400 mg QD) | Acute respiratory distress syndrome: # Events (Cohort 3 400 mg QD) | Adrenal insufficiency: # Events (Cohort 3 400 mg QD) | Anaemia: # Events (Cohort 3 400 mg QD) | Anal incontinence: # Events (Cohort 3 400 mg QD) | Asthenia: # Events (Cohort 3 400 mg QD) | Atelectasis: # Events (Cohort 3 400 mg QD) | Balance disorder: # Events (Cohort 3 400 mg QD) | Basal cell carcinoma: # Events (Cohort 3 400 mg QD) | Benign prostatic hyperplasia: # Events (Cohort 3 400 mg QD) | Blood alkaline phosphatase increased: # Events (Cohort 3 400 mg QD) | Blood chloride decreased: # Events (Cohort 3 400 mg QD) | Blood creatine increased: # Events (Cohort 3 400 mg QD) | Blood creatine phosphokinase increased: # Events (Cohort 3 400 mg QD) | Blood loss anaemia: # Events (Cohort 3 400 mg QD) | Bronchial secretion retention: # Events (Cohort 3 400 mg QD) | Bronchoscopy: # Events (Cohort 3 400 mg QD) | Catheter site haemorrhage: # Events (Cohort 3 400 mg QD) | Chills: # Events (Cohort 3 400 mg QD) | Chronic kidney disease: # Events (Cohort 3 400 mg QD) | Contrast media allergy: # Events (Cohort 3 400 mg QD) | Corneal abrasion: # Events (Cohort 3 400 mg QD) | Corneal infection: # Events (Cohort 3 400 mg QD) | Drug eruption: # Events (Cohort 3 400 mg QD) | Drug-related SAE, No. (%) (Cohort 3 400 mg QD) | Dyspnoea exertional: # Events (Cohort 3 400 mg QD) | Enamel anomaly: # Events (Cohort 3 400 mg QD) | Epidural lipomatosis: # Events (Cohort 3 400 mg QD) | Epstein-Barr virus infection: # Events (Cohort 3 400 mg QD) | Erectile dysfunction: # Events (Cohort 3 400 mg QD) | Eye irritation: # Events (Cohort 3 400 mg QD) | Eye pain: # Events (Cohort 3 400 mg QD) | Eye pruritus: # Events (Cohort 3 400 mg QD) | Flushing: # Events (Cohort 3 400 mg QD)
8 (38): All grade Nausea, No. (%) (Cohort 3 400 mg QD)
2/21 (9.52%): Acute kidney injury: Affected/At Risk (%) (Cohort 3 400 mg QD) | Alanine aminotransferase increased: Affected/At Risk (%) (Cohort 3 400 mg QD) | Blood creatinine increased: Affected/At Risk (%) (Cohort 3 400 mg QD) | Dehydration: Affected/At Risk (%) (Cohort 3 400 mg QD) | Dizziness: Affected/At Risk (%) (Cohort 3 400 mg QD) | Dry eye: Affected/At Risk (%) (Cohort 3 400 mg QD) | Dysphagia: Affected/At Risk (%) (Cohort 3 400 mg QD)
1: Urinary tract pain: # Events (Cohort 2 200 mg BID) | Urine output decreased: # Events (Cohort 2 200 mg BID) | Vascular access complication: # Events (Cohort 2 200 mg BID) | Abdominal distension: # Events (Cohort 3 400 mg QD) | Actinic keratosis: # Events (Cohort 3 400 mg QD) | Aspartate aminotransferase increased: # Events (Cohort 3 400 mg QD) | Back pain: # Events (Cohort 3 400 mg QD) | Blister: # Events (Cohort 3 400 mg QD) | Blood cholesterol increased: # Events (Cohort 3 400 mg QD) | Bronchitis: # Events (Cohort 3 400 mg QD) | Conjunctival haemorrhage: # Events (Cohort 3 400 mg QD) | Dry skin: # Events (Cohort 3 400 mg QD) | Dyspepsia: # Events (Cohort 3 400 mg QD) | Embolism: # Events (Cohort 3 400 mg QD) | Fall: # Events (Cohort 3 400 mg QD) | Flatulence: # Events (Cohort 3 400 mg QD)
16 (100): Any AE, No. (%) (Cohort 3 400 mg QD)
2/16 (12.5%): Urinary tract infection: Affected/At Risk (%) (Cohort 2 200 mg BID) | Vision blurred: Affected/At Risk (%) (Cohort 2 200 mg BID)
4: Constipation: # Events (Cohort 3 400 mg QD) | Contusion: # Events (Cohort 3 400 mg QD) | Decreased appetite: # Events (Cohort 3 400 mg QD)
3: Vomiting: # Events (Cohort 2 200 mg BID) | Anxiety: # Events (Cohort 3 400 mg QD) | Conjunctivitis: # Events (Cohort 3 400 mg QD) | Depression: # Events (Cohort 3 400 mg QD) | Dysphagia: # Events (Cohort 3 400 mg QD)
2 (10): All grade ALT/AST increased, No. (%) (Cohort 3 400 mg QD) | Death, No. (%) (Cohort 3 400 mg QD)
4/21 (19.05%): Abdominal pain: Affected/At Risk (%) (Cohort 3 400 mg QD) | Decreased appetite: Affected/At Risk (%) (Cohort 3 400 mg QD)
6: Abdominal pain: # Events (Cohort 3 400 mg QD) | Acute kidney injury: # Events (Cohort 3 400 mg QD) | Arthralgia: # Events (Cohort 3 400 mg QD) | Dyspnoea: # Events (Cohort 3 400 mg QD)
1/16 (6.25%): Urinary retention: Affected/At Risk (%) (Cohort 2 200 mg BID) | Urinary tract pain: Affected/At Risk (%) (Cohort 2 200 mg BID) | Urine output decreased: Affected/At Risk (%) (Cohort 2 200 mg BID) | Vascular access complication: Affected/At Risk (%) (Cohort 2 200 mg BID) | Weight increased: Affected/At Risk (%) (Cohort 2 200 mg BID)
3/21 (14.29%): Anxiety: Affected/At Risk (%) (Cohort 3 400 mg QD) | Conjunctivitis: Affected/At Risk (%) (Cohort 3 400 mg QD) | Constipation: Affected/At Risk (%) (Cohort 3 400 mg QD) | Contusion: Affected/At Risk (%) (Cohort 3 400 mg QD) | Depression: Affected/At Risk (%) (Cohort 3 400 mg QD)
14: Fatigue: # Events (Cohort 3 400 mg QD)
2: Urinary tract infection: # Events (Cohort 2 200 mg BID) | Vision blurred: # Events (Cohort 2 200 mg BID) | Weight increased: # Events (Cohort 2 200 mg BID) | Alanine aminotransferase increased: # Events (Cohort 3 400 mg QD) | Blepharitis: # Events (Cohort 3 400 mg QD) | Blood creatinine increased: # Events (Cohort 3 400 mg QD) | Dehydration: # Events (Cohort 3 400 mg QD) | Dizziness: # Events (Cohort 3 400 mg QD) | Dry eye: # Events (Cohort 3 400 mg QD)
6 (29): All grade Headache, No. (%) (Cohort 3 400 mg QD) | All grade Peripheral edema, No. (%) (Cohort 3 400 mg QD)
0/16 (0%): Vertigo: Affected/At Risk (%) (Cohort 2 200 mg BID) | Weight decreased: Affected/At Risk (%) (Cohort 2 200 mg BID) | White blood cell count decreased: Affected/At Risk (%) (Cohort 2 200 mg BID)
6/21 (28.57%): Dyspnoea: Affected/At Risk (%) (Cohort 3 400 mg QD)
1/21 (4.76%): Abdominal distension: Affected/At Risk (%) (Cohort 3 400 mg QD) | Actinic keratosis: Affected/At Risk (%) (Cohort 3 400 mg QD) | Aspartate aminotransferase increased: Affected/At Risk (%) (Cohort 3 400 mg QD) | Back pain: Affected/At Risk (%) (Cohort 3 400 mg QD) | Blepharitis: Affected/At Risk (%) (Cohort 3 400 mg QD) | Blister: Affected/At Risk (%) (Cohort 3 400 mg QD) | Blood cholesterol increased: Affected/At Risk (%) (Cohort 3 400 mg QD) | Bronchitis: Affected/At Risk (%) (Cohort 3 400 mg QD) | Conjunctival haemorrhage: Affected/At Risk (%) (Cohort 3 400 mg QD) | Dry skin: Affected/At Risk (%) (Cohort 3 400 mg QD) | Dyspepsia: Affected/At Risk (%) (Cohort 3 400 mg QD) | Embolism: Affected/At Risk (%) (Cohort 3 400 mg QD) | Fall: Affected/At Risk (%) (Cohort 3 400 mg QD) | Flatulence: Affected/At Risk (%) (Cohort 3 400 mg QD)
9 (43): All grade Fatigue, No. (%) (Cohort 3 400 mg QD)
3/21: All-Cause Mortality, Affected/At Risk (Cohort 3 400 mg QD)
